From US5627156A, “Polypeptide agonists for human interleukin-8” (University of Nebraska Board of Regents, priority 1994, dated 1997)
Where no end group is shown, it is not given here.

How the values were obtained:
[1] = test system: peripheral blood cells (PMNs, monocytes, lymphocytes); assay: In vivo peripheral blood (PBL) cellularity after ip injection; set-up: species or system C57BL/6 mice; conditions: single ip injection
Procedure: (§1) A stock solution of 5 mg/ml of Analog 1 was prepared using Dulbecco's phosphate buffered saline D-PBS. The solution was made 5× to compensate for the injection of 0.2 ml ip. The mice were dosed at various times with various doses of analog 1. The ip administration was with a volume of 0.2 ml. In addition, excipient control animals were injected.
(§2) The mice used for the study were C57BL/6 females, which were obtained from Jackson Laboratories. The mice used in these studies were at 8-10 weeks of age and weighed 15-18 g. The mice were housed in conventional cages, fed pelleted food and given water ad libitum.
At various times following injection of Analog 1 the mice were bled from retinal orbital plexus with 40 μl removed into heparanized capillary tubes and the blood analyzed using a Serona Baker 9000 Blood analyzer. In addition, blood films were made and differentials undertaken on at least 200 cells/sample.

[2] = test system: Polymorphonuclear leukocytes (PMNs); assay: Neutrophil Ca release by flow cytometry (Fluo-3); type: cell-based, human
Procedure: Polymorphonuclear leukocytes (≥95% neutrophils, PMNs) were isolated from heparinized (10 U/ml) blood collected from healthy volunteers. Erythrocytes were removed by 6% dextran sedimentation for 30 minutes at room temperature, and then the supernatant was subjected to Ficoll (Ficoll-Paque, Pharmacia LKB, Uppsala, Sweden) density gradient centrifugation. PMNs were obtained from the pellet. Contaminated erythrocytes were eliminated by one cycle of hypotonic lysis. After an additional washing step the cells were counted and adjusted to a final concentration of 5×10^6 /ml in RPMI 1640 (Gibco, Grand Island, N.Y.). Fluo-3 Loading--The loading procedure with Fluo-3 (Molecular Probes, Eugene, Oreg.) was carried out with PMNs suspended at a density of 5×10^6 /ml in fresh RPMI 1640 containing 2.0 μM Fluo-3 AM (prediluted in dimethyl sulfoxide; Sigma Chemicals) in polypropylene tubes (Falcon 2063, Becton Dickinson). […]
Measurement of [Ca^2+ ] in Flow Cytometry--Before addition of the stimuli the fluorescence channel of the FAGScan Plus (Becton Dickinson) was adjusted to find the basal fluorescence level of loaded but unstimulated PMNs. The samples were excited by an argon laser at 488 nm and emission was measured at 525 nm (green fluorescence, channel FL1). […] The fluorescence of Fluo-3-loadedcells was measured in arbitrary fluorescence units of mean channel fluorescence (channel FL1). […]

[3] = test system: peritoneal cells (PMNs, monocytes/macrophages, lymphocytes); assay: In vivo chemotactic activity into the peritoneum after ip injection; set-up: species or system C57BL/6 mice
Procedure: as §1, §2
The mice were sacrificed by ether overdose, the ventral skin reflected and the peritoneum lavaged with three 5 ml lavages of calcium-, magnesium-freeHBSS. At one, two, four, eight and 24 hours, following injection, three to five mice and/or control mice were lavaged and the cells collected in 15 ml tubes. The peritoneal cells were then centrifuged and counted. In addition, a differential was done on the peritoneal cells in a cytospin preparation. For the cytospin, 25 μl of bovine albumin (Sigma Lot #70H0183) was first placed in the bottom of the chamber, and 100 μl of cell suspension (100,000 cells) added. It was spun at 1000 rpm for 5 minutes and then left to dry. Next, they were placed in leukostat fixative solution for 5 seconds followed by 45 seconds in Leukostat solution 1 and 45 seconds in Leukostat solution 2 and finally washed in deionized H2 O for 5 seconds and allowed to dry. The slides were analyzed under microscope for differentials.

[4] = Biological activity of the analog compared to analog 1 (test not specified); conditions: C-terminally truncated, residues 4 to 17
Procedure: The biological activity of an analog of the invention is determined by comparing the analog with naturally occurring IL-8.

[5] = test system: receptor sites on neutrophils; conditions: cited from earlier work

With “ELRCQCIKTYSKPFHPK (cysteine pairing not given here) [Analog 1, structural mimic of IL-8 from amino acid residues 4 to 20]” the PBL cellularity ([1]; FIG. 2) was “significant increase”, the “frequency of PMNs in the peripheral blood” value ([1]; FIG. 5) was “increase” and the “absolute number of PMNs and monocytes in the peripheral blood” value ([1]; FIG. 6) was “significant increase”. The “neutrophil Ca concentration” value ([2]; FIG. 10A and B, concentration not given) was “induced a change in neutrophil Ca concentrations”, the “kinetics of the in vivo chemotactic response in the peritoneum” value ([3]; ip injection of 10 μg, FIG. 7) was “greatest increase observed was in the number of macrophages and PMNs” and the “primary cell type elicited in the peritoneum” value ([3]; ip injection, FIG. 3) was “PMNs”. The “increase in PMN into the peritoneum” value ([3]; ip injection, FIG. 4) was “four-fold”, the “increase in monocyte/macrophages into the peritoneum” value ([3]; ip injection, FIG. 4) was “two-fold” and the “dose of optimal activity on peritoneal cellularity” value ([3]; single ip injection, 0.1-500 μg/animal, FIG. 1) was 10 μg/animal.
With “Glu-Leu-Arp-Cys-Gln-Cys-Ile-Lys-Thr-Tyr-Ser-Lys-Pro-Phe (ELRCQCIKTYSKPF) [Analog 2, structural mimic of human IL-8 from amino acid residues 4 to 17]” the “activity compared to analog 1” value [4] was “slight loss of activity”.
In the case of Interleukin 8 [IL-8], the “neutrophil Ca concentration” value ([2]; 77 amino acid IL-8 at 10^-6 M, FIG. 8B) is given as “the majority of neutrophils showed an increase in calcium concentration” and the Kd [5] is given as 200 pM.
